# Source: patent US20110136108A1, “XBP1(S) Protein Acting as an Adipocyte Differentiation Marker Having a Facility to Regulate Differentiation into Adipocytes, and an Application Therefor” (CATHOLICE UNIVERSITY INDUSTRY ACADEMIC COOPERATION …, priority 2008, published 2011)
# System: PPARγ2 mRNA
# Experiment: PPARγ2 mRNA expression during adipocyte differentiation (real-time PCR)
# Type: cell-based, mouse
# Conditions: SFG-xbp1i cells, 50 μM rosiglitazone in induction medium
# Method: From the cells subjected to differentiation, total RNA was isolated by chloroform extraction and ethanol precipitation (TRIzol Reagent, Invitrogen, Carlsbad, Calif.). Thereafter, the total RNA was used to synthesize cDNA by RT-PCR (M-MLV reverse transcriptase, Promega, MADISON, Wis.). Real-time PCR was performed using a fluorescent probe of SYBR Green (SYBR Green QPCR Master Mix (2×), TAKARA, JAPAN), with cDNA serving as a template. Relative mRNA expression levels were calculated using a comparative Ct method.
# In this regard, XBP1(S) expression-knock-down 3T3-L1 precursor cells (SFG-xbp1i) were induced to differentiate into adipocytes in the presence of 0 or 50 μM rosiglitazone in an induction medium during which the relative expression levels of PPARγ2 mRNA were measured.
compound,measurement,value
CN(CCOc1ccc(CC2SC(=O)NC2=O)cc1)c1ccccn1 (stereo not shown) [rosiglitazone],expression level of PPARγ2 mRNA relative to absence of rosiglitazone,20 times
